PMC10600239, “Selective MCL-1 inhibitor ABBV-467 is efficacious in tumor models but is associated with cardiac troponin increases in patients” (Communications Medicine, 2023)
Several values for one entry are separate records, joined by “and”; a condition that tells them apart may be missing. Equal values may be shown once. Read-outs that look alike come from different tables or passages of the source.

Tests used:
H929 cells = test: In vitro cell viability assay (CellTiter-Glo); format: cell-based, human
Experimental: (§1) All cell lines were grown and treated in RPMI 1640 or Dulbecco’s modified Eagle medium (Sigma, St. Louis, MO) supplemented with 10% fetal bovine serum (Gibco) or 10% human serum (Sigma) and maintained in a humidified incubator at 5% CO2 and 37 °C. DLD-1, MV4-11, NCI-H929 (all ATCC, Manassas, VA, USA) and AMO-1 (DSMZ, Braunschweig, Germany) cells were plated 4000 cells per well in 384-well tissue culture plates and treated with compounds of interest for 24 h at 37 °C, 5% CO2 humidified incubator. Each concentration was tested in duplicate at least 3 separate times. Adherent cells were allowed to adhere overnight prior to treatment. Alternatively, AMO-1 or NCI-H929 cells were treated with ABBV-467 for the indicated contact times (1–24 h) at 37 °C in a 5% CO2 humidified incubator and washed 3 times with compound-free media prior to incubation for the remainder of a 24-h treatment period. Cell viability was subsequently determined using CellTiter-Glo (Promega, Madison, WI, USA) according to the manufacturer’s instructions.
(§2) For in vitro viability assays, mean EC50 and EC90 values were determined from the resulting dose-response curves from at least 3 independent experiments, and depict the mean ± standard error of the mean.
(§3) Fig. 2 Apoptosis induced by ABBV-467 is mechanism based and induces cell death in MCL-1-dependent cell lines after short target engagement periods. H929 cells were treated with ABBV-467 in the presence or absence of the pan-caspase inhibitor z-VAD-fmk (50 µM) and the impact on caspase-3/7 activation (a), mitochondrial membrane potential (ΔΨm; b), and apoptosis (c) determined. Alternatively, BAK-deficient SKBR3 cells were treated with ABBV-467 for 24 h and the impact on cell viability compared with the parental cell line, determined by CellTiter-Glo. Inset depicts a western blot of BAK and BAX expression in SKBR3 cell variants using GAPDH as a loading control. Each of the 3 proteins were probed on separate blots (d). Data in (a–d) are presented as the mean ± standard error of the mean. H929 and AMO-1 cells were treated with ABBV-467 at the indicated concentrations and the impact on caspase-3/7 activation and viability (DRAQ7-positive) cells determined over time by Incucyte®. Data are presented as the mean ± standard deviation (e). H929 or AMO-1 cells were cultured in media containing 10% human serum and treated with ABBV-467 for the indicated contact times. Cells were subsequently washed 3 times with drug-free media and incubated in drug-free media for the remainder of the 24-h treatment period at 37 °C before cell viability was determined by CellTiter-Glo. Mean EC50 and EC90 values were determined from the resulting dose-response curves from at least 3 independent experiments, each assessed in quadruplicate, and depict the mean ± standard error of the mean. Presented ABBV-467 dose-response curves in H929 and AMO-1 cells were compiled from at least 3 independent experiments (f).

MV4-11 cells = test: In vitro cell viability assay (CellTiter-Glo); format: cell-based, human
Experimental: as §1, §2

DLD-1 cells = test: In vitro cell viability assay (CellTiter-Glo); format: cell-based, human; settings: Homo sapiens
Experimental: as §1, §2

AMO-1 cells = test: In vitro cell viability assay (CellTiter-Glo); format: cell-based, human
Experimental: as §1, §2, §3

SKBR3 cells = test: Cell viability of parental and BAK-, BAX-, BCL2L11-, PMAIP1-deficient SKBR3 cells (CellTiter-Glo); format: cell-based; set-up: SKBR3 BAK Fig 2D: unit not given here
Experimental: as §3
Supplementary Fig. S5: SKBR3 cells deficient in BAX, BAK , PM AIP 1 (gene encoding the protein NOXA),
BCL 2L 11 (gene encoding the protein BIM) were treated with ABBV-467 for 24 hours and the impact on
cell death compared to the parental cell line determined by CellTiter- Glo™.

[1] = Homo sapiens, NCI-H929, 24 h, read-out: H929 EC50 (nM, 10% FBS), 10% FBS, 24 h continuous treatment
[2] = Homo sapiens, MV4-11, 24 h, read-out: MV4-11 EC50 (nM, 10% FBS), 10% FBS, 24 h continuous treatment
[3] = DLD-1, read-out: DLD-1 EC50 (nM), 10% FBS, 24 h continuous treatment
[4] = Homo sapiens, AMO1, 24 h, read-out: AMO-1 EC50 (nM, 10% FBS), 10% FBS, 24 h continuous treatment
[5] = Homo sapiens, NCI-H929, NCI-H929, arithmetic mean, read-out: Arithmetic Mean EC50 nM
[6] = Homo sapiens, NCI-H929, NCI-H929, arithmetic mean, read-out: Arithmetic Mean EC50 µM
[7] = NCI-H929, individual determinations, read-out: Individual EC50
[8] = Homo sapiens, MV4-11, MV4-11, arithmetic mean, read-out: Arithmetic Mean EC50 nM
[9] = Homo sapiens, MV4-11, MV4-11, arithmetic mean, read-out: Arithmetic Mean EC50 µM
[10] = Homo sapiens, MV4-11, MV4-11, individual determinations, read-out: Individual EC50
[11] = MV4-11, individual determinations, read-out: Individual EC50
[12] = DLD-1, arithmetic mean, read-out: Arithmetic Mean EC50
[13] = DLD-1, individual determinations, read-out: Individual EC50
[14] = AMO-1, individual determinations, read-out: Individual EC50
[15] = Homo sapiens, AMO1, AMO-1, arithmetic mean, read-out: Arithmetic Mean EC50 nM
[16] = Homo sapiens, AMO1, AMO-1, arithmetic mean, read-out: Arithmetic Mean EC50 µM
[17] = Homo sapiens, AMO1, AMO-1, individual determinations, read-out: Individual EC50

EC50 (H929 cells; [1]) [nM]	EC50 (MV4-11 cells; [2]) [nM]	EC50 (DLD-1 cells; [3]) [nM]	EC50 (H929 cells; [5]) [nM]	EC50 (H929 cells; [6]) [nM]	EC50 (H929 cells; [7])	EC50 (MV4-11 cells; [8]) [nM]	EC50 (MV4-11 cells; [9]) [nM]	EC50 (MV4-11 cells; [10]) [nM]	EC50 (MV4-11 cells; [11])	EC50 (DLD-1 cells; [12]) [nM]	EC50 (DLD-1 cells; [13]) [nM]	Structure (SMILES)	EC50 (AMO-1 cells; [4]) [nM]	EC50 (AMO-1 cells; [14])	EC50 (AMO-1 cells; [15]) [nM]	EC50 (AMO-1 cells; [16]) [nM]	EC50 (AMO-1 cells; [17]) [nM]	also measured
31.7	34.9	> 10000	–	–	–	–	–	–	–	–	–	Cc1c2c(nn1C)CSCc1cc(n(C)n1)CSc1cc(c3ccccc3c1)OCCCc1c(C(=O)O)n(C)c3c-2c(Cl)ccc13 [AZD5991, reference compound]	22.9	–	–	–	–	–
–	–	–	31.6	31.6	22 nM and 20.4 nM and 19.8 nM and 64.4 nM	34.9	34.9	36.3	35 nM and 33.3 nM	> 10000	> 10000	Cc1c2c(nn1C)CSCc1cc(n(C)n1)CSc1cc(c3ccccc3c1)OCCCc1c(C(=O)O)n(C)c3c-2c(Cl)ccc13 [AZD-5991]	–	18.6 nM and 18.3 nM and 31.9 nM	22.9	22.9	22.8	–

Second part, the molecule before the results:

Structure (SMILES)	EC50 (H929 cells; [1]) [nM]	EC50 (MV4-11 cells; [2]) [nM]	EC50 (DLD-1 cells; [3]) [nM]	EC50 (H929 cells; [5]) [nM]	EC50 (H929 cells; [6]) [nM]	EC50 (H929 cells; [7])	EC50 (MV4-11 cells; [8]) [nM]	EC50 (MV4-11 cells; [9]) [nM]	EC50 (MV4-11 cells; [10]) [nM]	EC50 (MV4-11 cells; [11])	EC50 (DLD-1 cells; [12]) [nM]	EC50 (DLD-1 cells; [13]) [nM]	EC50 (AMO-1 cells; [4]) [nM]	EC50 (AMO-1 cells; [14])	EC50 (AMO-1 cells; [15]) [nM]	EC50 (AMO-1 cells; [16]) [nM]	EC50 (AMO-1 cells; [17]) [nM]	also measured
CO[C@H]1/C=C/C[C@H](C)[C@@H](C)S(=O)(=O)NC(=O)c2ccc3c(c2)N(C[C@@H]2CC[C@H]21)C[C@@]1(CCCc2cc(Cl)ccc21)CO3 [AMG 176, reference compound]	195	106	> 10000	–	–	–	–	–	–	–	–	–	90.6	–	–	–	–	–
CO[C@]1(CN2CCN3CCCC[C@@H]3C2)/C=C/C[C@H](C)[C@@H](C)S(=O)(=O)NC(=O)c2ccc3c(c2)N(C[C@@H]2CC[C@H]21)C[C@@]1(CCCc2cc(Cl)ccc21)CO3 [AMG 397, reference compound]	13	43.6	> 10000	13	13	13.4 nM and 12.9 nM	43.6	43.6	44.3	42 nM and 44.6 nM	> 10000	> 10000	13.5	13.1 nM and 12.8 nM	13.5	13.5	14.8	EC50 (H929 cells; Homo sapiens, NCI-H929, NCI-H929, individual determinations, read-out: Individual EC50): 12.7 nM
CO[C@H]1/C=C/C[C@H](C)[C@@H](C)S(=O)(=O)NC(=O)c2ccc3c(c2)N(C[C@@H]2CC[C@H]21)C[C@@]1(CCCc2cc(Cl)ccc21)CO3 [AMG-176]	–	–	–	195	195	–	106	106	–	85.5 nM and 203 nM	> 10000	> 10000	–	105 nM and 130 nM and 174 nM	90.6	90.6	–	–
Cc1c(Cl)c2c(Cl)c(C)c1-c1c(-c3ccc(F)cc3)sc3ncnc(c13)O[C@@H](C(=O)O)Cc1cc(ccc1OCc1ccnc(-c3ccc(OC[C@H]4COCCO4)cc3)n1)OC[C@@H](CN1CCN(C)CC1)O2 [Compound A-1747745.7]	–	–	–	–	–	–	–	–	–	–	–	–	–	–	–	–	–	SKBR3 BAK Fig 2D (SKBR3 cells; SKBR3 BAK-/-, Log [A-1747745.7] uM 0.045757): 84.0406 and 88.7361 and 91.3691; SKBR3 BAK Fig 2D (SKBR3 cells; SKBR3 BAK-/-, Log [A-1747745.7] uM 0.522879): 91.5492 and 90.6375 and 98.324; SKBR3 BAK Fig 2D (SKBR3 cells; SKBR3 BAK-/-, Log [A-1747745.7] uM 1): 71.243 and 87.693 and 82.7613; SKBR3 BAK Fig 2D (SKBR3 cells; SKBR3 BAK-/-, Log [A-1747745.7] uM -0.43136): 93.7393 and 91.7734 and 95.9555; SKBR3 BAK Fig 2D (SKBR3 cells; SKBR3 BAK-/-, Log [A-1747745.7] uM -0.90849): 91.4405 and 96.0162 and 91.1767; SKBR3 BAK Fig 2D (SKBR3 cells; SKBR3 BAK-/-, Log [A-1747745.7] uM -1.38561): 96.4117 and 96.5016 and 91.1114; SKBR3 BAK Fig 2D (SKBR3 cells; SKBR3 BAK-/-, Log [A-1747745.7] uM -1.86273): 100.833 and 96.8873 and 90.9219; SKBR3 BAK Fig 2D (SKBR3 cells; SKBR3 BAK-/-, Log [A-1747745.7] uM -2.33985): 101.031 and 99.3037 and 92.3815; SKBR3 BAK Fig 2D (SKBR3 cells; SKBR3 BAK-/-, Log [A-1747745.7] uM -2.81697): 103.475 and 99.2425 and 96.192; SKBR3 BAK Fig 2D (SKBR3 cells; SKBR3 BAK-/-, Log [A-1747745.7] uM -3.29409): 92.6268 and 101.141 and 97.8192; SKBR3 BAK Fig 2D (SKBR3 cells; SKBR3 BAK-/-, Log [A-1747745.7] uM -3.79): 106.888 and 100.173 and 98.0201; SKBR3 BAK Fig 2D (SKBR3 cells; SKBR3 Parent, Log [A-1747745.7] uM -1.86273): 28.8447 and 52.516 and 42.8969; SKBR3 BAK Fig 2D (SKBR3 cells; SKBR3 Parent, Log [A-1747745.7] uM -2.33985): 83.0425 and 94.5116 and 88.5924; SKBR3 BAK Fig 2D (SKBR3 cells; SKBR3 Parent, Log [A-1747745.7] uM -2.81697): 98.7606 and 99.166 and 97.8729; SKBR3 BAK Fig 2D (SKBR3 cells; SKBR3 Parent, Log [A-1747745.7] uM -3.29409): 89.9706 and 97.7937 and 96.3217; SKBR3 BAK Fig 2D (SKBR3 cells; SKBR3 Parent, Log [A-1747745.7] uM -3.79): 100.8 and 103.293 and 99.6415
